Measured values: US11000601B2, “Conjugated biological molecules, pharmaceutical compositions and methods” (OBI Pharma, Inc., priority 2016, dated 2021)
Where “and” joins values, the source holds several entries; their conditions need not be identical. Equal entries are not always repeated. Square brackets hold non-standard residues; d marks the D form. Peptide text beside a SMILES is read from it. * marks the point of attachment. Dolaproine = CO[C@@H]([C@@H]1CCCN1)[C@@H](C)C(=O)O; Dil = CC[C@H](C)[C@H](NC)[C@@H](CC(=O)O)OC; X1 = C[C@@H](N*)[C@@H](O)c1ccccc1; NMeV = CN[C@H](C(=O)O)C(C)C

Test system: MCF-7 (ATCC HTB-22) human breast adenocarcinoma
Test: Xenograft tumor model of human breast adenocarcinoma MCF-7 in nude mice: tumor volume, T/C
Format: in vivo
Settings: for Tumor Volume, individual mouse: mice No. 1-6
Description: In a xenograft tumor model of human breast adenocarcinoma, MCF-7 (ATCC HTB-22) cells were subcutaneously (SC) implanted (2.0×10^7 cells in 1:1 matrigel/media mixture at 0.2 mL/mouse) into the right flank of female athymic (nu/nu) nude mice. Supplemental injections of estradiol cyclopentyl propionate (100 μg/mouse) were administered subcutaneously between the scapulae twice weekly, from one week prior to cell implantation to study completion. Tumor-implanted mice were divided into eleven treatment groups, each group containing six animals, and test agent administrations were initiated one day after cell implantation (denoted as Day 1). 3.1 Test Substances and Dosing Pattern
Two control groups received intravenous injections of vehicle (25 mM Sodium Citrate, pH 6.5+100 mM NaCl) once weekly for either six weeks (group 1) or two weeks (group 2).
Human breast adenocarcinoma tumor cell line, MCF-7 (ATCC HTB-22, breast adenocarcinoma), was provided by the Sponsor. The tumor cells were prepared and cultured by the Sponsor (1×10^8 cells/mL), and 0.2 mL MCF-7 tumor cell inoculum containing 2×10^7 cells (mixture of matrigel and medium; 1:1) was implanted subcutaneously in the right flank of each mouse.
Female (nu/nu) nude mice aged 6-7 weeks obtained from BioLasco Taiwan (under Charles River Laboratories Licensee) were used. The animals were housed in individually ventilated cages (IVG, 36 Mini Isolator System). The allocation for 3-5 animals was 27×20×14 in cm. All animals were maintained in a hygienic environment under controlled temperature (20-24° C.) and humidity (30-70%) with 12-hour light/dark cycle. Free access to standard lab diet (Oriental Yeast Co., Ltd., Japan) and autoclaved tap water were granted. All aspects of this work including housing, experimentation, and animal disposal were performed in general accordance with the “Guide for the Care and Use of Laboratory Animals: Eighth Edition” (National Academies Press, Washington, D.C., 2011) in our AAALAC-accredited laboratory animal facility. In addition, the animal care and use protocol was reviewed and approved by the IACUC at Eurofins Panlabs Taiwan, Ltd.
The tumor volumes, body weights, mortality, and signs of overt toxicity were monitored and recorded twice weekly for 77 days. Tumor volume (mm^3) was calculated according to the formula for a prolate ellipsoid: length (mm)×[width (mm)]^2×0.5. Tumor growth inhibition was calculated as T/C (treatment/control)×100%. A T/C value≤42% was considered significant anti-tumor activity. Two-way ANOVA followed by Bonferroni test was used to ascertain the statistical significance of groups compared to respective vehicle control (*p<0.05).

[1] = 0.057 mg/kg × 6, IV, once weekly, Day 1
[2] = 0.057 mg/kg × 6, IV, once weekly, Day 5
[3] = 0.057 mg/kg × 6, IV, once weekly, Day 8
[4] = 0.057 mg/kg × 6, IV, once weekly, Day 12
[5] = 0.057 mg/kg × 6, IV, once weekly, Day 15
[6] = 0.057 mg/kg × 6, IV, once weekly, Day 19
[7] = 0.057 mg/kg × 6, IV, once weekly, Day 22
[8] = 0.057 mg/kg × 6, IV, once weekly, Day 26
[9] = 0.057 mg/kg × 6 IV once weekly, Day 29
[10] = 0.057 mg/kg × 6 IV once weekly, Day 33
[11] = 0.057 mg/kg × 6 IV once weekly, Day 36
[12] = 0.057 mg/kg × 6 IV once weekly, Day 40
[13] = 0.057 mg/kg × 6 IV once weekly, Day 43
[14] = 0.057 mg/kg × 6 IV once weekly, Day 46
[15] = 0.057 mg/kg × 6 IV once weekly, Day 49
[16] = Gr. 11, 0.057 mg/kg × 6, IV, once weekly, Day 53
[17] = Gr. 11, 0.057 mg/kg × 6, IV, once weekly, Day 56
[18] = Gr. 11, 0.057 mg/kg × 6, IV, once weekly, Day 60
[19] = Gr. 11, 0.057 mg/kg × 6, IV, once weekly, Day 63
[20] = Gr. 11, 0.057 mg/kg × 6, IV, once weekly, Day 67
[21] = Gr. 11, 0.057 mg/kg × 6, IV, once weekly, Day 70
[22] = Gr. 11, 0.057 mg/kg × 6, IV, once weekly, Day 74
[23] = Gr. 11, 0.057 mg/kg × 6, IV, once weekly, Day 77

## CC[C@H](C)[C@@H]([C@@H](CC(=O)N1CCC[C@H]1[C@H](OC)[C@@H](C)C(=O)N[C@H](C)[C@@H](O)c1ccccc1)OC)N(C)C(=O)[C@@H](NC(=O)[C@@H](NC)C(C)C)C(C)C [MMAE, monomethyl auristatin E] (H-[NMeV]V[Dil][Dolaproine]-X1)
0.057 mg/kg IV once weekly for six weeks, during and for a short time after the dosing phase
  anti-tumor activity (in words): modest-to-moderate anti-tumor activity
[1]
  % T/C: 101%
  Tumor Volume, Mean: 161 mm^3
  Tumor Volume, single mouse (No. 1-6): 141 mm^3 and 139 mm^3 and 162 mm^3 and 186 mm^3 and 152 mm^3 and 188 mm^3
[2]
  % T/C: 97%
  Tumor Volume, Mean: 119 mm^3
  Tumor Volume, single mouse (No. 1-6): 110 mm^3 and 123 mm^3 and 145 mm^3 and 104 mm^3 and 106 mm^3 and 128 mm^3
[3]
  % T/C: 96%
  Tumor Volume, Mean: 132 mm^3
  Tumor Volume, single mouse (No. 1-6): 121 mm^3 and 125 mm^3 and 139 mm^3 and 131 mm^3 (2×) and 146 mm^3
[4]
  % T/C: 71%
  Tumor Volume, Mean: 114 mm^3
  Tumor Volume, single mouse (No. 1-6): 101 mm^3 and 104 mm^3 and 133 mm^3 and 115 mm^3 and 103 mm^3 and 129 mm^3
[5]
  % T/C: 72%
  Tumor Volume, Mean: 116 mm^3
  Tumor Volume, single mouse (No. 1-6): 102 mm^3 and 101 mm^3 and 127 mm^3 and 105 mm^3 and 137 mm^3 and 121 mm^3
[6]
  % T/C: 64%
  Tumor Volume, Mean: 130 mm^3
  Tumor Volume, single mouse (No. 1-6): 137 mm^3 and 113 mm^3 and 125 mm^3 and 121 mm^3 and 148 mm^3 and 135 mm^3
[7]
  % T/C: 61%
  Tumor Volume, Mean: 140 mm^3
  Tumor Volume, single mouse (No. 1-6): 123 mm^3 and 137 mm^3 (2×) and 138 mm^3 and 164 mm^3 and 143 mm^3
[8]
  % T/C: 54%
  Tumor Volume, Mean: 143 mm^3
  Tumor Volume, single mouse (No. 1-6): 135 mm^3 and 127 mm^3 and 119 mm^3 and 154 mm^3 and 179 mm^3 and 144 mm^3
[9]
  % T/C: 54%
  Tumor Volume, individual mouse: 146 mm^3 and 131 mm^3 and 119 mm^3 and 156 mm^3 and 194 mm^3 and 160 mm^3
0.057 mg/kg × 6 IV once weekly, Day 29, group mean
  Tumor Volume, Mean: 151 mm^3
[10]
  % T/C: 55%
  Tumor Volume, individual mouse: 162 mm^3 and 152 mm^3 and 133 mm^3 and 168 mm^3 and 216 mm^3 and 177 mm^3
0.057 mg/kg × 6 IV once weekly, Day 33, group mean
  Tumor Volume, Mean: 168 mm^3
[11]
  % T/C: 59%
  Tumor Volume, individual mouse: 171 mm^3 and 154 mm^3 and 152 mm^3 and 201 mm^3 and 256 mm^3 and 218 mm^3
0.057 mg/kg × 6 IV once weekly, Day 36, group mean
  Tumor Volume, Mean: 192 mm^3
[12]
  % T/C: 61%
  Tumor Volume, individual mouse: 184 mm^3 and 186 mm^3 and 156 mm^3 and 223 mm^3 and 285 mm^3 and 226 mm^3
0.057 mg/kg × 6 IV once weekly, Day 40, group mean
  Tumor Volume, Mean: 210 mm^3
[13]
  % T/C: 63%
  Tumor Volume, individual mouse: 186 mm^3 (2×) and 239 mm^3 and 242 mm^3 and 296 mm^3 and 240 mm^3
0.057 mg/kg × 6 IV once weekly, Day 43, group mean
  Tumor Volume, Mean: 232 mm^3
[14]
  % T/C: 65%
  Tumor Volume, individual mouse: 204 mm^3 and 261 mm^3 and 222 mm^3 and 258 mm^3 and 332 mm^3 and 259 mm^3
0.057 mg/kg × 6 IV once weekly, Day 46, group mean
  Tumor Volume, Mean: 256 mm^3
[15]
  % T/C: 64%
  Tumor Volume, individual mouse: 210 mm^3 and 270 mm^3 and 235 mm^3 and 301 mm^3 and 351 mm^3 and 264 mm^3
0.057 mg/kg × 6 IV once weekly, Day 49, group mean
  Tumor Volume, Mean: 272 mm^3
[16]
  % T/C (tumor volume, treatment/control): 64%
  Tumor Volume, Mean: 290 mm^3
  Tumor Volume, individual animals No. 1-6: 216 mm^3 and 291 mm^3 and 268 mm^3 and 319 mm^3 and 373 mm^3 and 270 mm^3
[17]
  % T/C (tumor volume, treatment/control): 65%
  Tumor Volume, Mean: 323 mm^3
  Tumor Volume, individual animals No. 1-6: 305 mm^3 and 249 mm^3 and 325 mm^3 and 329 mm^3 and 399 mm^3 and 328 mm^3
[18]
  % T/C (tumor volume, treatment/control): 65%
  Tumor Volume, Mean: 357 mm^3
  Tumor Volume, individual animals No. 1-6: 312 mm^3 and 262 mm^3 and 383 mm^3 and 373 mm^3 and 453 mm^3 and 358 mm^3
[19]
  % T/C (tumor volume, treatment/control): 71%
  Tumor Volume, Mean: 421 mm^3
  Tumor Volume, individual animals No. 1-6: 286 mm^3 and 422 mm^3 and 494 mm^3 and 418 mm^3 and 496 mm^3 and 412 mm^3
[20]
  % T/C (tumor volume, treatment/control): 71%
  Tumor Volume, Mean: 469 mm^3
  Tumor Volume, individual animals No. 1-6: 307 mm^3 and 458 mm^3 and 598 mm^3 and 455 mm^3 and 505 mm^3 and 489 mm^3
[21]
  % T/C (tumor volume, treatment/control): 73%
  Tumor Volume, Mean: 512 mm^3
  Tumor Volume, individual animals No. 1-6: 333 mm^3 and 591 mm^3 and 603 mm^3 and 493 mm^3 and 523 mm^3 and 528 mm^3
[22]
  % T/C (tumor volume, treatment/control): 79%
  Tumor Volume, Mean: 584 mm^3
  Tumor Volume, individual animals No. 1-6: 365 mm^3 and 625 mm^3 and 681 mm^3 and 570 mm^3 and 568 mm^3 and 695 mm^3
[23]
  % T/C (tumor volume, treatment/control): 83%
  Tumor Volume, Mean: 736 mm^3
  Tumor Volume, individual animals No. 1-6: 410 mm^3 and 922 mm^3 and 760 mm^3 and 632 mm^3 and 807 mm^3 and 887 mm^3
